PubChem BioAssay (NCI)
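Cells were grown in 96-well plates and exposed to each compound for 48 hours at five concentrations; endpoints were interpolated linearly between bracketing concentrations, or set to the highest concentration if not reached. At the GI50, growth is halved. TGI denotes the concentration required for complete inhibition of growth.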

How the values were obtained:
Experiment in all cases: NCI anticancer screen, dose series, 48 h
BT-549 breast = test system: BT-549 breast
DU-145 prostate = test system: DU-145 prostate
DLD-1 colon = test system: DLD-1 colon
DMS 114 small cell lung = test system: DMS 114 small cell lung
HOP-18 NSCLC = test system: HOP-18 NSCLC
M19-MEL melanoma = test system: M19-MEL melanoma
RXF-631 renal = test system: RXF-631 renal
MDA-N = test system: MDA-N
XF 498 CNS = test system: XF 498 CNS

## O=C(N/N=C\c1cc(Cl)ccc1O)N/N=C/c1cc(Cl)ccc1O
BT-549 breast
  GI50: > 100 µM
  TGI: > 100 µM
DU-145 prostate
  GI50: > 100 µM
  TGI: > 100 µM

## CN(C)c1ccc(/C=N/Nc2ccc(-c3nc4ccccc4[nH]3)cc2)cc1
BT-549 breast
  GI50: 12.4 µM
  TGI: 35.5 µM
DU-145 prostate
  GI50: 37.8 µM
  TGI: > 50 µM

## Cc1ccc(C)c2sc3cc(=O)ccc-3nc12
DLD-1 colon
  TGI: > 100 µM
DMS 114 small cell lung
  TGI: > 100 µM
HOP-18 NSCLC
  TGI: > 100 µM
M19-MEL melanoma
  TGI: 31.1 µM
RXF-631 renal
  TGI: > 100 µM

## CC(=O)OCC1OC(O[C@@H]2C[C@H]3C(C)(C)[C@H](OC(C)=O)CC[C@]3(C)[C@H]3CC[C@@H]4[C@]5(CC[C@@]4(C)[C@@]32C)O[C@@H]([C@H](O)C(C)(C)O)C[C@@H]5C)C(O)C(O)C1O (stereo not given in full)
BT-549 breast
  GI50: 12.1 µM
  TGI: 24.5 µM
DU-145 prostate
  GI50: 10.6 µM
  TGI: 22.8 µM
MDA-N
  GI50: 7.08 µM
  TGI: 20.1 µM

## COS(=O)CCOC(=O)c1ccccc1SSc1ccccc1C(=O)OCCS(=O)OC (stereo not given)
DLD-1 colon
  TGI: > 100 µM
DMS 114 small cell lung
  TGI: 34.1 µM
HOP-18 NSCLC
  TGI: > 100 µM
M19-MEL melanoma
  TGI: > 100 µM
XF 498 CNS
  TGI: 62.8 µM

## ClCc1ccc(Cn2cnc3ncnc(Cl)c32)cc1
BT-549 breast
  GI50: 3.75 µM
  TGI: 16.9 µM

## CC(C)c1cc2c(O)c(c1)Cc1cc(C(C)C)cc(c1O)Cc1cc(C(C)C)cc(c1O)Cc1cc(C(C)C)cc(c1O)Cc1cc(C(C)C)cc(c1O)Cc1cc(C(C)C)cc(c1O)C2
DLD-1 colon
  TGI: > 100 µM
DMS 114 small cell lung
  TGI: > 100 µM
M19-MEL melanoma
  TGI: > 100 µM
XF 498 CNS
  TGI: > 100 µM

## COc1cc(C(=O)c2c(-c3ccccc3)oc3ccccc23)cc(OC)c1O
BT-549 breast
  GI50: 1.39 µM
  TGI: 7.82 µM
DU-145 prostate
  GI50: 3.15 µM
  TGI: 13.6 µM

## COc1ccc2c3c([nH]c2c1)[C@H]1C[C@H]2[C@H](C[C@@H](O)[C@H](OC)[C@H]2C(=O)O)CN1CC3
BT-549 breast
  TGI: > 100 µM
DU-145 prostate
  TGI: > 100 µM
MDA-N
  TGI: > 100 µM

## O=C1C=Cc2noc3cccc1c23
DLD-1 colon
  TGI: 3.13 µM
DMS 114 small cell lung
  TGI: 4.99 µM
HOP-18 NSCLC
  TGI: 33.6 µM
M19-MEL melanoma
  TGI: 11.2 µM
RXF-631 renal
  TGI: 27.9 µM

## CC1=CC(=O)c2[nH]c3ccccc3c2C1=O
DLD-1 colon
  GI50: 5.06 µM
  TGI: 8.82 µM
DMS 114 small cell lung
  TGI: 7.82 µM
HOP-18 NSCLC
  GI50: 3.35 µM
  TGI: 7.5 µM
XF 498 CNS
  GI50: 4.38 µM
  TGI: 7.99 µM

## CC(C)(C)c1ccc(C(O)(c2ccc(C(C)(C)C)cc2)c2ccc(C(C)(C)C)cc2)cc1
BT-549 breast
  TGI: > 100 µM
DU-145 prostate
  TGI: > 100 µM
MDA-N
  TGI: > 100 µM

## NC(=O)c1ccc(NC(=O)c2oc3ccccc3c2-c2cnn(-c3ccccc3)c2)cc1
BT-549 breast
  GI50: 3.51 µM
  TGI: > 100 µM

## Clc1cccc(C2SCc3nc4ccccc4n32)c1Cl (stereo not given)
DLD-1 colon
  TGI: 32.4 µM
DMS 114 small cell lung
  TGI: 36.4 µM
HOP-18 NSCLC
  TGI: 33.1 µM
M19-MEL melanoma
  TGI: 29.6 µM
XF 498 CNS
  TGI: 29.9 µM

## C/C(=N\N=C(N)N)c1sc(-c2nc(C)c(/C(C)=N/N=C(N)N)s2)nc1C
DLD-1 colon
  TGI: > 100 µM
HOP-18 NSCLC
  TGI: > 100 µM
M19-MEL melanoma
  TGI: > 100 µM
XF 498 CNS
  TGI: > 100 µM

## CCNC1=CC(=O)c2ncccc2C1=O
BT-549 breast
  GI50: 1.54 µM
  TGI: 3.15 µM
DU-145 prostate
  GI50: 1.18 µM
  TGI: 2.44 µM

## O=C1CCCC2COc3ccc(O)c1c32 (stereo not given)
DLD-1 colon
  TGI: > 100 µM
DMS 114 small cell lung
  TGI: > 100 µM
M19-MEL melanoma
  TGI: > 100 µM
RXF-631 renal
  TGI: > 100 µM

## C[C@@H]1CC[C@H]2C(CN3CCN(CC4=C(C(F)(F)F)O[C@@H]5O[C@@]6(C)CC[C@H]7[C@H](C)CC[C@@H]4[C@@]57OO6)CC3)=C(C(F)(F)F)O[C@@H]3O[C@@]4(C)CC[C@@H]1[C@]32OO4
BT-549 breast
  GI50: 2.53 µM
  TGI: > 100 µM
DU-145 prostate
  GI50: 16.9 µM
  TGI: > 100 µM

## C/C(=N\n1c(N)c(C#N)c(-c2ccc(Cl)cc2)c(C#N)c1=O)c1cccnc1
DU-145 prostate
  GI50: > 100 µM
  TGI: > 100 µM

## O=[N+]([O-])C(=C(c1ccccc1)c1ccccc1)[N+](=O)[O-]
DLD-1 colon
  TGI: 19.8 µM
DMS 114 small cell lung
  TGI: 43.2 µM

## CC1=C[C@H]2C[C@@]3(C)O[C@@H]([C@]4(C)CC[C@H]([C@@H](C)C(=O)O)OO4)CC3C(C)(C)[C@H]2CC1 (stereo not given in full)
DLD-1 colon
  TGI: 2.47 µM
DMS 114 small cell lung
  TGI: 3.32 µM
M19-MEL melanoma
  TGI: 3.3 µM
XF 498 CNS
  TGI: 0.234 µM

## O=C1CCCc2c(O)ccc(O)c21
DLD-1 colon
  TGI: > 100 µM
DMS 114 small cell lung
  TGI: 74.9 µM
HOP-18 NSCLC
  TGI: > 100 µM
M19-MEL melanoma
  TGI: > 100 µM

## O=C(O)c1oc2ccc([N+](=O)[O-])c3c2c1CCC3
DLD-1 colon
  TGI: > 100 µM
DMS 114 small cell lung
  TGI: > 100 µM
HOP-18 NSCLC
  TGI: > 100 µM
M19-MEL melanoma
  TGI: > 100 µM
XF 498 CNS
  TGI: > 100 µM

## COCCOCCOCCOCCOc1ccc2c(c1)C(=O)c1nc3ncccc3c(=O)n1-2
BT-549 breast
  GI50: 1.1 µM
  TGI: 2.3 µM
DU-145 prostate
  GI50: 0.54 µM
  TGI: 1.79 µM

## CCn1cc(C2NC(=O)c3cc(F)ccc3N2)c2cccc(Cl)c21 (stereo not given)
BT-549 breast
  GI50: 0.327 µM
  TGI: > 100 µM
DU-145 prostate
  GI50: 0.379 µM
  TGI: > 100 µM

## COc1ccccc1OCC(O)CO (stereo not given)
BT-549 breast
  GI50: > 100 µM
  TGI: > 100 µM
DU-145 prostate
  GI50: > 100 µM
  TGI: > 100 µM

## Cn1cc(/C=C2\C(=O)Nc3cccnc32)c2ccccc21
BT-549 breast
  GI50: > 25 µM
  TGI: > 25 µM
DU-145 prostate
  GI50: 18 µM
  TGI: > 25 µM

## NC(=O)Cn1c(=O)[nH]c(=O)c2[nH]cnc21
DMS 114 small cell lung
  TGI: > 100 µM
HOP-18 NSCLC
  TGI: > 100 µM
M19-MEL melanoma
  TGI: > 100 µM

## O=C1CCC(c2ccccc2)(c2ccccc2)CC1
BT-549 breast
  TGI: > 100 µM
DU-145 prostate
  TGI: > 100 µM
MDA-N
  TGI: > 100 µM

## O=C(/C=C/c1cccs1)Nc1ncc(Cc2ccccc2F)s1
BT-549 breast
  TGI: > 100 µM
DU-145 prostate
  GI50: 0.3 µM
  TGI: > 100 µM

## Nc1ccccc1C#Cc1ccccc1C#CCCCCO
BT-549 breast
  GI50: 23.2 µM
  TGI: 76.5 µM
DU-145 prostate
  GI50: 28.2 µM
  TGI: > 100 µM

## CC(C)S(=O)(=O)n1c(N)nc2ccc(/C(=N/O)c3ccccc3)cc21
DLD-1 colon
  TGI: > 100 µM
DMS 114 small cell lung
  TGI: 43.8 µM
M19-MEL melanoma
  TGI: > 100 µM

## O=C(O)CCN1C(=O)/C(=C/C(Cl)=C/c2ccccc2)SC1=S
BT-549 breast
  GI50: 2.14 µM
  TGI: 6.27 µM
DU-145 prostate
  GI50: 3.14 µM
  TGI: 12.4 µM

## S=C1OC2C3C4CC5C3C(O1)C1C5C4C21 (stereo not given)
DLD-1 colon
  TGI: > 100 µM
DMS 114 small cell lung
  TGI: > 100 µM
HOP-18 NSCLC
  TGI: > 100 µM
M19-MEL melanoma
  TGI: > 100 µM

## OCC(O)C(OC1OC(CO)C(O)C(O)C1O)c1nn(-c2ccc(F)cc2)c2nc3cc(Cl)c(Cl)cc3cc12 (stereo not given)
DLD-1 colon
  TGI: > 100 µM
DMS 114 small cell lung
  TGI: > 100 µM
M19-MEL melanoma
  TGI: > 100 µM
XF 498 CNS
  TGI: > 100 µM

## C(=C1/CCCCC([n+]2ccccc2)=N1)/c1ccccc1
DLD-1 colon
  TGI: > 100 µM
DMS 114 small cell lung
  TGI: > 100 µM
HOP-18 NSCLC
  TGI: > 100 µM
M19-MEL melanoma
  TGI: > 100 µM
